Reference: patent US9546367B2, “siRNA compositions and methods for inhibiting gene expression in tumor initiating cells of breast cancer” (priority 2011, dated 2017)

Key:
SUM159 = test: in vitro MSFE with nanoliposome/silicon particle packaged siRNA; format: cell-based, human; details: for secondary MSFE: SUM159, siRNA, Day 8, p<0.05; for primary and secondary MSFE: SUM159 incubated with MSV/siRNA
Description: (§1) “Claudin-low”-like human breast cancer cell lines (SUM159 and BT549) were plated in 24-well ultralow attachment plates with mammary epithelial growth medium (MEGM) (5,000 cells/well). Both cell lines were then treated with 1 μg/well/6 wells of silicon particles loaded with DOPC nanoliposomes/siRNA. The primary MSs were allowed to grow for 3 days. MFs were counted on Day 3 with a GelCount colony counter (Oxford Optronix, Oxford, UK). Mammosphere-Forming Efficiency (MSFE) was calculated by dividing the number of MSs by the number of seeded cells. In addition, established MSs were serially passaged by dissociation, and single cells were re-plated on fresh 24-well, ultra-low-attachment plates to form secondary mammospheres, which were counted after 3 days. One-way ANOVA and Tukey tests were performed. A p-value of less than 0.05 was considered significant.
(§2) To develop a more clinically relevant model, two of the identified candidates (MLF2 and RPL39L) were compared to Stat3 (positive control), and their siRNA sequences identified within the shRNA vector. These siRNAs were then packaged in nanoliposomes and tested for MSFE using the same protocol as above, except for the addition of packaged siRNA instead of lentiviral shRNA. (N.B. wherein shRNA requires a promoter and needs to be transcribed in order to function, siRNA functions by itself once incorporated into recipient cells).
(§3) To develop siRNA nanotherapeutics targeting TIC, studies have been conducted to confirm the essential roles of the candidate TIC genes. Exemplary siRNA oligonucleotides specific for STAT3, MFL2, and RPL39L were formulated into nanoliposomes, which were then loaded into porous silicon MSV particles. For in vitro assay, BT549 and SUM159 cells were incubated with MSV/siRNA, and primary and secondary MSFE was measured. […] For in vivo assessment, SCID/Beige mice were inoculated with SUM159 tumor, and treated with MDS/siRNA delivered by tail vein injection. Cells were then isolated from tumor mice 3 weeks later, and MSFE was measured. […] These studies indicate that 1) MDS/siRNA could successfully be delivered to tumor tissues effectively in vivo, 2) uptake of MDS/siRNA by TIC was efficient, and 3) MFL2 and RPL39L were essential genes for TIC.
(§4) The siRNA sequences of two candidate genes RPL39 and MLF2 were packaged in nanoliposomes and the effects on MSFE determined in vitro, as described above, using packaged siRNA instead of lentiviral shRNA.

BT549 = test: as above; format: cell-based, human; details: for secondary MSFE: BT549, siRNA, Day 8, p<0.05; for primary and secondary MSFE: BT549 incubated with MSV/siRNA
Description: as §1, §2, §3, §4

SUM159 tumor = test: MDS/siRNA by tail vein in SUM159 tumor mice, MSFE of isolated cells; format: in vivo, SCID/Beige mice; details: MDS/siRNA by tail vein injection, cells isolated 3 weeks later
Description: as §3

nNOS = test: Western blot of nitric oxide synthases after siRNA knockdown; format: cell-based, human; details: three triple-negative cell lines treated in vitro with siRNA
Description: (§5) In order to confirm the pathways involved in BCSC targeting, western blot analysis was conducted with siRNA knockdown and overexpression of RPL39 and MLF2 in three breast cancer cell lines (SUM159, BT549 and MDAMB231). Briefly, 30 μg of whole cell extracts were quantified and run on a 4-20% gel for 1 hr, and transferred onto nitrocellulose membranes. The primary antibodies were incubated overnight at the following dilutions eNOS (1:500), nNOS (1:500), and iNOS (1:1000) (Millipore, Bellerica, Mass., USA) followed by one-hour secondary antibody incubation, and development using chemiluminescence.

iNOS = test: as above; format: cell-based, human; details: three triple-negative cell lines (SUM159, BT549, MDAMB231) treated in vitro with siRNA
Description: as §5

eNOS = test: as above; format: cell-based, human; details: three triple-negative cell lines treated in vitro with siRNA
Description: as §5

[1] = system: MDAMB231 tumor xenografts; test: long-term in vivo siRNA treatment of MDAMB231 xenografts; parameters: species or system SCID-Beige mice; details: p<0.05; for median survival: siRNA with chemotherapy (docetaxel) over chemotherapy alone
Description: FIG. 8A, FIG. 8B, and […] show long-term, in vivo treatment in siRNA MDAMB231 xenografts. Triple-negative breast cancer cell line, MDAMB231 was injected into the mammary fat pad of SCID beige mice (n=9). These tumors were randomized into six groups: vehicle+scrambled siRNA, vehicle+RPL39 siRNA, vehicle 4 MLF2 siRNA, docetaxel (20 mg/kg, i.p.)+scrambled siRNA, docetaxel (20 mg/kg, i.p.)+RPL39 siRNA, docetaxel (20 mg/kg, i.p.)+MLF2 siRNA. Tumor volume was measured twice weekly and reported as tumor volume fold-change over time.
Long-term in vivo treatment efficacy studies: three million cells MDAMB231 cancer cells, which grow primary as well as metastatic tumors, were injected in the mammary fat pad of SCID-Beige mice and allowed them to grow to 150-300 mm^3 tumors, and randomized them into 6 groups: (1) vehicle+scrambled siRNA. (2) vehicle+MLF2 siRNA. (3) vehicle+RPL39 siRNA, (4) docetaxel (20 mg/kg)+scrambled siRNA, (5) docetaxel (20 mg/kg)+MLF2 siRNA, and (6) docetaxel (20 mg/kg)+RPL39 siRNA. Each injection was loaded with 15 μg of siRNA per animal. These groups received three cycles of treatment every 14 days apart starting at Day 0, and cationic liposome packaged siRNA was administered through tail vein injection thrice weekly.
In the shRNA knockdown experiments, the mean and standard deviation of all measurements from every replicated experiment of each plate were estimated. The Z-score was calculated by subtracting […] and dividing the difference by standard deviation. […] Different treatment groups were compared by one-way ANOVA to determine statistical significance in the confirmatory shRNA, nanoliposome siRNA, and tumor volume fold-change experiments. This was followed by Tukey analysis for a pairwise comparison of the different treatment groups. In the tumor recurrence studies, events were defined as first appearance of tumor >50 mm^3 after completion of treatment. Time to recurrence was derived by the Kaplan-Meier method, with differences compared using the generalized Mann-Whitney-Wilcoxon rank-sum test.

[2] = siRNA alone (15 μg per injection) vs vehicle treated groups
[3] = siRNA in combination with docetaxel (20 mg/kg)

MLF2 siRNA: siRNA against myeloid leukemia factor 2; sense SEQ ID NO: 3 CCCTGATGGATCCCTTTGCTAT, antisense SEQ ID NO: 19 ATAGCAAAGGGATCCATCAGGA (packaged in nanoliposomes, chemistry not given here, further chemistry not given here)
secondary MSFE (SUM159): significantly reduced | primary and secondary MSFE (SUM159): significant reduction | secondary MSFE (BT549): significantly reduced | primary and secondary MSFE (BT549): significant reduction | MSFE of cells isolated from tumor mice (SUM159 tumor): Dramatic reduction | nNOS (nNOS): no changes | iNOS signaling (iNOS): clear reduction | eNOS (eNOS): decrease | tumor volume [1, 2]: Significant reduction | tumor volume [1, 3]: significantly reduced | median survival [1]: significantly prolonged

RPL39 siRNA: siRNA against ribosomal protein L39-like; sense SEQ ID NO: 15 ACGATTCCTGGCCAAGAAACAA, antisense SEQ ID NO: 31 TTGTTTCTTGGCCAGGAATCGC (listed as DNA, chemistry not fully specified)
secondary MSFE (SUM159): significantly reduced | primary and secondary MSFE (SUM159): significant reduction | secondary MSFE (BT549): significantly reduced | primary and secondary MSFE (BT549): significant reduction | MSFE of cells isolated from tumor mice (SUM159 tumor): Dramatic reduction | nNOS (nNOS): no changes | iNOS signaling (iNOS): clear reduction | eNOS (eNOS): decrease | tumor volume [1, 2]: Significant reduction | tumor volume [1, 3]: significantly reduced | median survival [1]: significantly prolonged
